Assay results from the supplement of paper PMC10307832.

What follows are cell lines tested with C1CSC2=C(C(=O)N1)SC3=C2C=C(C=C3)O [kb NB 142-70] + Cc1nc(Nc2ncc(C(=O)Nc3c(C)cccc3Cl)s2)cc(N2CCN(CCO)CC2)n1 [Dasatinib] (partner 0.075 µM) (assay: relative viability (nuclei count vs DMSO), 5 days (fraction); higher = more cells survive). Conditions: first compound 0.1 µM.
Method in brief: (§1)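 Dosing by pin tool came one day after lung cancer cell lines were seeded in 1536-well plates, using either one drug or a fixed anchor-drug dose plus five library-drug doses (not always all listed) in √10 steps. After 5 days, nuclei were counted on 4× images. Relative viability is treated-well nuclei count divided by vehicle-well nuclei count, and values are medians of duplicate plates.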
LK-2 showed a relative viability of 0.231. NCI-H2087 was tested, and the relative viability was 0.907. SK-MES-1 was tested, and the relative viability was 0.422. H3255 was tested, and the relative viability was 0.297. For COR-L23, the relative viability was 0.529. COR-L 105 showed a relative viability of 0.363. For LOU-NH91, the relative viability was 0.486. ChaGo-K-1 showed a relative viability of 0.509. For NCI-H2170, the relative viability was 0.498. Work on NCI-H2405 yielded a relative viability of 0.205. Work on HOP-62 yielded a relative viability of 0.72. For NCI-H522, the relative viability was 1.03. With LU99A the relative viability was 0.496. In the case of BEN, the relative viability is reported as 0.307. HARA was tested, and the relative viability was 0.3. Work on SW 900 yielded a relative viability of 0.517. In the case of HCC-78, the relative viability is reported as 0.426. Cell Line NCI-H322M has a relative viability of 0.24. Cell Line LCLC-97TM1 has a relative viability of 0.787. Cell Line NCI-H2009 has a relative viability of 0.321. A-427 was tested, and the relative viability was 0.8. In the case of NCI-H441, the relative viability is reported as 0.634. NCI-H661 showed a relative viability of 0.916. For NCI-H1734, the relative viability was 0.449. Cell Line NCI-H460 has a relative viability of 0.504. For NCI-H2347, the relative viability was 0.311. In the case of SK-LU-1, the relative viability is reported as 0.176. NCI-H1395 was tested, and the relative viability was 0.393. 201T showed a relative viability of 0.596. NCI-H1915 showed a relative viability of 0.323. HCC-827 was tested, and the relative viability was 0.265. LXF-289 gave a relative viability of 0.212. With NCI-H23 the relative viability was 0.792. With NCI-H647 the relative viability was 0.185. Work on CAL-12T yielded a relative viability of 0.408. With NCI-H1651 the relative viability was 0.438. EPLC-272H gave a relative viability of 0.417. In the case of NCI-H2228, the relative viability is reported as 0.568. In the case of NCI-H1355, the relative viability is reported as 0.7. NCI-H3122 showed a relative viability of 0.803.

Same assay, conditions: first compound 1 µM
LK-2 gave a relative viability of 0.231. For NCI-H2087, the relative viability was 1.04. Work on SK-MES-1 yielded a relative viability of 0.49. Work on H3255 yielded a relative viability of 0.404. Work on COR-L23 yielded a relative viability of 0.526. In the case of COR-L 105, the relative viability is reported as 0.33. LOU-NH91 gave a relative viability of 0.508. ChaGo-K-1 gave a relative viability of 0.559. In the case of NCI-H2170, the relative viability is reported as 0.475. With NCI-H2405 the relative viability was 0.208. HOP-62 showed a relative viability of 0.65. NCI-H522 gave a relative viability of 0.856. LU99A showed a relative viability of 0.583. With BEN the relative viability was 0.303. For HARA, the relative viability was 0.188. SW 900 was tested, and the relative viability was 0.478. HCC-78 showed a relative viability of 0.388. In the case of NCI-H322M, the relative viability is reported as 0.278. LCLC-97TM1 showed a relative viability of 0.95. Cell Line NCI-H2009 has a relative viability of 0.284. Work on A-427 yielded a relative viability of 0.612. NCI-H441 showed a relative viability of 0.575. In the case of NCI-H661, the relative viability is reported as 0.89. NCI-H1734 was tested, and the relative viability was 0.421. For NCI-H460, the relative viability was 0.422. Cell Line NCI-H2347 has a relative viability of 0.349. In the case of SK-LU-1, the relative viability is reported as 0.163. NCI-H1395 was tested, and the relative viability was 0.443. 201T was tested, and the relative viability was 0.47. For NCI-H1915, the relative viability was 0.339. HCC-827 was tested, and the relative viability was 0.295. Cell Line LXF-289 has a relative viability of 0.215. NCI-H23 was tested, and the relative viability was 0.713. NCI-H647 gave a relative viability of 0.189. CAL-12T showed a relative viability of 0.375. In the case of NCI-H1651, the relative viability is reported as 0.44. For EPLC-272H, the relative viability was 0.34. NCI-H2228 gave a relative viability of 0.542. Cell Line NCI-H1355 has a relative viability of 0.642. For NCI-H3122, the relative viability was 0.794.

Same assay, conditions: first compound 3.162 µM
In the case of LK-2, the relative viability is reported as 0.229. For NCI-H2087, the relative viability was 0.608. Work on SK-MES-1 yielded a relative viability of 0.337. For H3255, the relative viability was 0.405. Cell Line COR-L23 has a relative viability of 0.311. COR-L 105 showed a relative viability of 0.345. In the case of LOU-NH91, the relative viability is reported as 0.556. For ChaGo-K-1, the relative viability was 0.543. NCI-H2170 gave a relative viability of 0.4. For NCI-H2405, the relative viability was 0.224. For HOP-62, the relative viability was 0.763. Cell Line NCI-H522 has a relative viability of 0.704. Cell Line LU99A has a relative viability of 0.405. Cell Line BEN has a relative viability of 0.209. Cell Line HARA has a relative viability of 0.237. SW 900 showed a relative viability of 0.208. For HCC-78, the relative viability was 0.31. In the case of NCI-H322M, the relative viability is reported as 0.269. LCLC-97TM1 showed a relative viability of 0.882. Cell Line NCI-H2009 has a relative viability of 0.155. For A-427, the relative viability was 0.607. In the case of NCI-H441, the relative viability is reported as 0.366. Work on NCI-H661 yielded a relative viability of 0.796. NCI-H1734 showed a relative viability of 0.278. For NCI-H460, the relative viability was 0.336. NCI-H2347 was tested, and the relative viability was 0.279. SK-LU-1 gave a relative viability of 0.119. With NCI-H1395 the relative viability was 0.43. 201T was tested, and the relative viability was 0.565. NCI-H1915 showed a relative viability of 0.248. HCC-827 gave a relative viability of 0.445. LXF-289 showed a relative viability of 0.21. NCI-H23 showed a relative viability of 0.287. NCI-H647 was tested, and the relative viability was 0.119. CAL-12T showed a relative viability of 0.414. NCI-H1651 was tested, and the relative viability was 0.174. In the case of EPLC-272H, the relative viability is reported as 0.149. NCI-H2228 showed a relative viability of 0.405. With NCI-H1355 the relative viability was 0.64. NCI-H3122 was tested, and the relative viability was 0.84.

The cell lines below were run with C1CSC2=C(C(=O)N1)SC3=C2C=C(C=C3)O [kb NB 142-70] + Nc1nc2[nH]cc(CCc3ccc(C(=O)N[C@@H](CCC(=O)O)C(=O)O)cc3)c2c(=O)[nH]1 [Pemetrexed] (partner 0.2 µM) in the same assay as above. Conditions: first compound 0.1 µM.
Method in brief: as §1
LK-2 gave a relative viability of 0.327. NCI-H2087 gave a relative viability of 0.569. Cell Line SK-MES-1 has a relative viability of 1. Cell Line H3255 has a relative viability of 0.572. COR-L23 showed a relative viability of 0.183. COR-L 105 was tested, and the relative viability was 1.14. With LOU-NH91 the relative viability was 0.432. ChaGo-K-1 showed a relative viability of 0.261. For NCI-H2170, the relative viability was 0.273. Cell Line NCI-H2405 has a relative viability of 1.11. For HOP-62, the relative viability was 0.3. NCI-H522 was tested, and the relative viability was 1.03. With LU99A the relative viability was 0.175. Work on BEN yielded a relative viability of 0.773. Cell Line HARA has a relative viability of 0.251. With SW 900 the relative viability was 0.451. HCC-78 showed a relative viability of 0.896. NCI-H322M gave a relative viability of 0.614. LCLC-97TM1 was tested, and the relative viability was 0.174. Work on NCI-H2009 yielded a relative viability of 1.05. A-427 was tested, and the relative viability was 0.886. Work on NCI-H441 yielded a relative viability of 0.269. Work on NCI-H661 yielded a relative viability of 0.967. NCI-H1734 showed a relative viability of 0.395. For NCI-H460, the relative viability was 0.058. NCI-H2347 gave a relative viability of 0.453. For SK-LU-1, the relative viability was 0.958. With NCI-H1395 the relative viability was 0.915. Work on 201T yielded a relative viability of 0.315. NCI-H1915 gave a relative viability of 0.462. For HCC-827, the relative viability was 0.25. LXF-289 gave a relative viability of 0.86. NCI-H23 showed a relative viability of 0.621. Work on NCI-H647 yielded a relative viability of 0.186. For CAL-12T, the relative viability was 1.11. Work on NCI-H1651 yielded a relative viability of 0.598. EPLC-272H was tested, and the relative viability was 0.433. NCI-H2228 showed a relative viability of 0.375. NCI-H1355 gave a relative viability of 0.943.
